Reference: patent publication US11123033B2, “Molecular imaging method for evaluating liver regeneration capacity after ALPPS operation” (Harbin Medical University, priority 2019, dated 2021)

Tested on: rabbit VX2 liver cancer model
Assay: 18F-FCH PET/CT imaging of residual liver after first-stage ALPPS
Assay type: in vivo
Conditions: ALPPS group
From the text: using incision and fragmentation method for liver cancer tissues; first inoculating a VX2 tumor strain into the muscle outside the rabbit hind leg after passage, wherein the tumor grows to a diameter of 2.0-3.0 cm after 3 weeks; removing the tumor in the muscle of the rabbit hind, eliminating the necrotic tissue, selecting fish-like tissue at the edge of the tumor, and using ophthalmic scissors to cut the tumor tissue into tissue blocks of 1 mm3, and washing repeatedly with saline and putting in a sterile Petri dish for use; putting an experimental rabbit into general anesthesia (method of anesthesia: intramuscular injection of Shutai 1 ml) and fixing it on an animal operating table in supine position; performing skin preparation, disinfection, and spreading sterile surgical scarves on a surgical region of a rabbit abdomen; injecting lidocaine into linea alba 1 cm below xiphoid process for local anesthesia, and making a midline incision of 4 to 5 cm in an upper abdomen and cutting abdominal wall layer by layer to expose a left lateral lobe of a liver; cutting a thicker liver lobe to form a hole passage of about 3 mm×3 mm, and implanting 3-5 tumors into it, then filling liver incision with gelatin sponge particles and pressing to stop bleeding, followed by suturing the incision and closing the abdomen.
two weeks after implanting the rabbit liver with the VX2 tumor strain, performing the first stage of ALPPS (i.e. associating liverpartition and portal vein ligation for staged hepatectomy) on tumor-bearing rabbits;
dividing the tumor-bearing rabbits randomly into an ALPPS group (the left branch of the portal vein of the liver is ligated, and the liver parenchyma is dissected along the ischemic line between the left middle lobe of the liver and the right lobe of the liver) and a Sham group (i.e., a sham operation group, no portal vein ligation and liver dissection); fasting rabbits in the ALPPS group for 12 hours before surgery, and fixing on the table in the supine position after general anesthesia, and performing skin preparation in the surgical region; injecting lidocaine into the left under the xiphoid process, opening the abdomen after anesthesia around the incision with an incision length of about 5-7 cm, exposing and separating the left branch of the portal vein and ligating with 4-0 surgical sutures, then after an ischemic line between the left and right liver is formed, using the surgical scissors to cut off the liver parenchyma along the ischemic line; filling the partition with gel sponge particles for hemostasis, after no obvious bleeding, closing the abdominal wall incision layer by layer, closing the abdominal cavity, and disinfecting the incision with iodophor. […]

## C[N+](C)(C[18F])CCO [18 F-FCH, [18 F] fluoromethylcholine]
After 14 days
  18 F-FCH intake in the residual liver: decreases slightly
First 3 days after surgery
  18 F-FCH uptake in the residual liver tissue: increases rapidly
From the 1st postoperative day, PET/CT 1 h after 37 MBq/kg i.v.
  18 F-FCH uptake in the residual liver tissue: significant high uptake
Residual liver, days after surgery
  time at which 18 F-FCH uptake reaches a peak: around 7 days
